Assay results from PubChem BioAssay (NCI).
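Grown in 96-well plates, cells were treated for 48 hours with each compound at five concentrations. Insufficient inhibition: endpoint recorded as highest concentration tested. TGI denotes the concentration required for complete inhibition of growth.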

How the values were obtained:
Assay in all cases: growth of human tumour cells (NCI), 48 h
UACC-257 melanoma = tested on: UACC-257 melanoma
U251 CNS = tested on: U251 CNS
A549 NSCLC = tested on: A549 NSCLC
PC-3 prostate = tested on: PC-3 prostate
SR leukemia = tested on: SR leukemia
NCI-H460 lung = tested on: NCI-H460 lung
OVCAR-8 ovarian = tested on: OVCAR-8 ovarian
OVCAR-4 ovarian = tested on: OVCAR-4 ovarian
NCI-H522 lung = tested on: NCI-H522 lung
UACC-62 melanoma = tested on: UACC-62 melanoma
HOP-62 NSCLC = tested on: HOP-62 NSCLC
SK-MEL-2 melanoma = tested on: SK-MEL-2 melanoma
MOLT-4 leukemia = tested on: MOLT-4 leukemia
M14 melanoma = tested on: M14 melanoma
KM12 colon = tested on: KM12 colon
MALME-3M melanoma = tested on: MALME-3M melanoma
SF-539 CNS = tested on: SF-539 CNS
TK-10 renal = tested on: TK-10 renal
HT29 colon = tested on: HT29 colon
EKVX NSCLC = tested on: EKVX NSCLC
K-562 leukemia = tested on: K-562 leukemia
HCT-116 colon = tested on: HCT-116 colon
NCI-H23 lung = tested on: NCI-H23 lung
NCI/ADR-RES ovarian = tested on: NCI/ADR-RES ovarian
COLO 205 colon = tested on: COLO 205 colon
IGROV1 ovarian = tested on: IGROV1 ovarian
ACHN renal = tested on: ACHN renal
HOP-92 NSCLC = tested on: HOP-92 NSCLC
MCF7 breast = tested on: MCF7 breast
OVCAR-5 ovarian = tested on: OVCAR-5 ovarian
HS 578T breast = tested on: HS 578T breast
CAKI-1 renal = tested on: CAKI-1 renal
SNB-75 CNS = tested on: SNB-75 CNS
LOX IMVI melanoma = tested on: LOX IMVI melanoma
SNB-19 CNS = tested on: SNB-19 CNS
SF-295 CNS = tested on: SF-295 CNS
T-47D breast = tested on: T-47D breast
RPMI-8226 leukemia = tested on: RPMI-8226 leukemia
HCT-15 colon = tested on: HCT-15 colon
MDA-MB-231 breast = tested on: MDA-MB-231 breast
A498 renal = tested on: A498 renal
UO-31 renal = tested on: UO-31 renal
SW-620 colon = tested on: SW-620 colon
RXF 393 renal = tested on: RXF 393 renal
786-0 renal = tested on: 786-0 renal
CCRF-CEM leukemia = tested on: CCRF-CEM leukemia
SK-OV-3 ovarian = tested on: SK-OV-3 ovarian
SF-268 CNS = tested on: SF-268 CNS
NCI-H226 lung = tested on: NCI-H226 lung
SK-MEL-5 melanoma = tested on: SK-MEL-5 melanoma
MDA-N = tested on: MDA-N
OVCAR-3 ovarian = tested on: OVCAR-3 ovarian
BT-549 breast = tested on: BT-549 breast
MDA-MB-435 = tested on: MDA-MB-435
SN12C renal = tested on: SN12C renal
SK-MEL-28 melanoma = tested on: SK-MEL-28 melanoma
DU-145 prostate = tested on: DU-145 prostate
HL-60(TB) leukemia = tested on: HL-60(TB) leukemia

## COc1ccc(C2C3COc4ccccc4C3=NN2c2ccccc2)cc1 (stereo not drawn)
UACC-257 melanoma
  TGI: > 100 µM
U251 CNS
  TGI: > 100 µM
A549 NSCLC
  TGI: > 100 µM
PC-3 prostate
  TGI: > 100 µM
SR leukemia
  TGI: > 100 µM
NCI-H460 lung
  TGI: > 100 µM
OVCAR-8 ovarian
  TGI: > 100 µM
OVCAR-4 ovarian
  TGI: > 100 µM
NCI-H522 lung
  TGI: > 100 µM
UACC-62 melanoma
  TGI: > 100 µM
HOP-62 NSCLC
  TGI: > 100 µM
SK-MEL-2 melanoma
  TGI: > 100 µM
MOLT-4 leukemia
  TGI: > 100 µM
M14 melanoma
  TGI: > 100 µM
KM12 colon
  TGI: > 100 µM
MALME-3M melanoma
  TGI: > 100 µM
SF-539 CNS
  TGI: > 100 µM
TK-10 renal
  TGI: > 100 µM
HT29 colon
  TGI: > 100 µM
EKVX NSCLC
  TGI: > 100 µM
K-562 leukemia
  TGI: > 100 µM
HCT-116 colon
  TGI: > 100 µM
NCI-H23 lung
  TGI: > 100 µM
NCI/ADR-RES ovarian
  TGI: > 100 µM
COLO 205 colon
  TGI: > 100 µM
IGROV1 ovarian
  TGI: > 100 µM
ACHN renal
  TGI: > 100 µM
HOP-92 NSCLC
  TGI: > 100 µM
MCF7 breast
  TGI: > 100 µM
OVCAR-5 ovarian
  TGI: > 100 µM
HS 578T breast
  TGI: > 100 µM
CAKI-1 renal
  TGI: > 100 µM
SNB-75 CNS
  TGI: > 100 µM
LOX IMVI melanoma
  TGI: > 100 µM
SNB-19 CNS
  TGI: > 100 µM
SF-295 CNS
  TGI: > 100 µM
T-47D breast
  TGI: > 100 µM
RPMI-8226 leukemia
  TGI: > 100 µM
HCT-15 colon
  TGI: > 100 µM
MDA-MB-231 breast
  TGI: > 100 µM
A498 renal
  TGI: > 100 µM
UO-31 renal
  TGI: > 100 µM
SW-620 colon
  TGI: > 100 µM
RXF 393 renal
  TGI: > 100 µM
786-0 renal
  TGI: > 100 µM
CCRF-CEM leukemia
  TGI: > 100 µM
SK-OV-3 ovarian
  TGI: > 100 µM
SF-268 CNS
  TGI: > 100 µM
NCI-H226 lung
  TGI: > 100 µM
SK-MEL-5 melanoma
  TGI: > 100 µM
MDA-N
  TGI: > 100 µM
OVCAR-3 ovarian
  TGI: > 100 µM
BT-549 breast
  TGI: > 100 µM
MDA-MB-435
  TGI: > 100 µM

## O=S(=O)(/N=C(\NO)Nc1ccc(Cl)cc1)c1cccc2nsnc12
UACC-257 melanoma
  TGI: > 100 µM
U251 CNS
  TGI: > 100 µM
A549 NSCLC
  TGI: > 100 µM
PC-3 prostate
  TGI: > 100 µM
NCI-H460 lung
  TGI: > 100 µM
OVCAR-8 ovarian
  TGI: > 100 µM
OVCAR-4 ovarian
  TGI: > 100 µM
NCI-H522 lung
  TGI: 28.9 µM
UACC-62 melanoma
  TGI: 53.1 µM
HOP-62 NSCLC
  TGI: > 100 µM
SN12C renal
  TGI: 63.1 µM
SK-MEL-2 melanoma
  TGI: 39.2 µM
MOLT-4 leukemia
  TGI: > 100 µM
M14 melanoma
  TGI: > 100 µM
KM12 colon
  TGI: > 100 µM
MALME-3M melanoma
  TGI: 46.3 µM
SF-539 CNS
  TGI: > 100 µM
TK-10 renal
  TGI: > 100 µM
HT29 colon
  TGI: > 100 µM
EKVX NSCLC
  TGI: 66 µM
K-562 leukemia
  TGI: > 100 µM
HCT-116 colon
  TGI: 85.4 µM
NCI-H23 lung
  TGI: > 100 µM
NCI/ADR-RES ovarian
  TGI: > 100 µM
COLO 205 colon
  TGI: > 100 µM
SK-MEL-28 melanoma
  TGI: 46.6 µM
DU-145 prostate
  TGI: > 100 µM
IGROV1 ovarian
  TGI: > 100 µM
ACHN renal
  TGI: > 100 µM
HOP-92 NSCLC
  TGI: 73.7 µM
OVCAR-5 ovarian
  TGI: 75.5 µM
HS 578T breast
  TGI: 85.6 µM
CAKI-1 renal
  TGI: 70 µM
SNB-75 CNS
  TGI: > 100 µM
LOX IMVI melanoma
  TGI: 61.4 µM
SNB-19 CNS
  TGI: > 100 µM
SF-295 CNS
  TGI: > 100 µM
T-47D breast
  TGI: > 100 µM
HCT-15 colon
  TGI: > 100 µM
MDA-MB-231 breast
  TGI: > 100 µM
UO-31 renal
  TGI: > 100 µM
SW-620 colon
  TGI: > 100 µM
RXF 393 renal
  TGI: > 100 µM
786-0 renal
  TGI: 80.7 µM
CCRF-CEM leukemia
  TGI: 71.9 µM
HL-60(TB) leukemia
  TGI: 39.1 µM
SK-OV-3 ovarian
  TGI: > 100 µM
SF-268 CNS
  TGI: > 100 µM
NCI-H226 lung
  TGI: > 100 µM
SK-MEL-5 melanoma
  TGI: 29.5 µM
MDA-N
  TGI: 79 µM
OVCAR-3 ovarian
  TGI: 70 µM
BT-549 breast
  TGI: 83.9 µM
MDA-MB-435
  TGI: > 100 µM
